The values that follow come from ChEMBL document CHEMBL5465560, “Selectivity Literature for EUbOPEN Chemogenomic Library” (2024).

In assay [1] the target is Mitogen-activated protein kinase 9 (Homo sapiens, UniProt P45984). Put plainly: Selectivity interaction (SelectScreen profiling (Invitrogen)) EUB0000607a MAPK9. Particulars: at 2 µM.
The target in assay [2] is Tyrosine-protein kinase HCK (Homo sapiens) (UniProt P08631). Put plainly: Selectivity interaction (Kinase panel (Invitrogen)) EUB0000639a HCK. The conditions noted are these: at 200 nM.
Assay [3] addresses Ribosomal protein S6 kinase alpha-3 (Homo sapiens, UniProt P51812). Put plainly: Selectivity interaction (ActivX KiNativ screen (kinase selectivity in THP-1 cell lysates)) EUB0000639a RPS6KA3. Type of assay: subcellular. Particulars: lysate, at 5 µM.
In assay [4] the target is Tyrosine-protein kinase BTK (Homo sapiens, UniProt Q06187). Particulars: at 10 µM.
Assay [5] deals with Phosphatidylinositol 4,5-bisphosphate 3-kinase catalytic subunit alpha isoform (Homo sapiens) (UniProt P42336). As to the kind of experiment: Selectivity interaction (ProQinase) EUB0000171b PIK3CA.
For assay [6], the target named is T1, Myosin-IIIb (Homo sapiens) (UniProt Q8WXR4).
T1 sequence (whole entry): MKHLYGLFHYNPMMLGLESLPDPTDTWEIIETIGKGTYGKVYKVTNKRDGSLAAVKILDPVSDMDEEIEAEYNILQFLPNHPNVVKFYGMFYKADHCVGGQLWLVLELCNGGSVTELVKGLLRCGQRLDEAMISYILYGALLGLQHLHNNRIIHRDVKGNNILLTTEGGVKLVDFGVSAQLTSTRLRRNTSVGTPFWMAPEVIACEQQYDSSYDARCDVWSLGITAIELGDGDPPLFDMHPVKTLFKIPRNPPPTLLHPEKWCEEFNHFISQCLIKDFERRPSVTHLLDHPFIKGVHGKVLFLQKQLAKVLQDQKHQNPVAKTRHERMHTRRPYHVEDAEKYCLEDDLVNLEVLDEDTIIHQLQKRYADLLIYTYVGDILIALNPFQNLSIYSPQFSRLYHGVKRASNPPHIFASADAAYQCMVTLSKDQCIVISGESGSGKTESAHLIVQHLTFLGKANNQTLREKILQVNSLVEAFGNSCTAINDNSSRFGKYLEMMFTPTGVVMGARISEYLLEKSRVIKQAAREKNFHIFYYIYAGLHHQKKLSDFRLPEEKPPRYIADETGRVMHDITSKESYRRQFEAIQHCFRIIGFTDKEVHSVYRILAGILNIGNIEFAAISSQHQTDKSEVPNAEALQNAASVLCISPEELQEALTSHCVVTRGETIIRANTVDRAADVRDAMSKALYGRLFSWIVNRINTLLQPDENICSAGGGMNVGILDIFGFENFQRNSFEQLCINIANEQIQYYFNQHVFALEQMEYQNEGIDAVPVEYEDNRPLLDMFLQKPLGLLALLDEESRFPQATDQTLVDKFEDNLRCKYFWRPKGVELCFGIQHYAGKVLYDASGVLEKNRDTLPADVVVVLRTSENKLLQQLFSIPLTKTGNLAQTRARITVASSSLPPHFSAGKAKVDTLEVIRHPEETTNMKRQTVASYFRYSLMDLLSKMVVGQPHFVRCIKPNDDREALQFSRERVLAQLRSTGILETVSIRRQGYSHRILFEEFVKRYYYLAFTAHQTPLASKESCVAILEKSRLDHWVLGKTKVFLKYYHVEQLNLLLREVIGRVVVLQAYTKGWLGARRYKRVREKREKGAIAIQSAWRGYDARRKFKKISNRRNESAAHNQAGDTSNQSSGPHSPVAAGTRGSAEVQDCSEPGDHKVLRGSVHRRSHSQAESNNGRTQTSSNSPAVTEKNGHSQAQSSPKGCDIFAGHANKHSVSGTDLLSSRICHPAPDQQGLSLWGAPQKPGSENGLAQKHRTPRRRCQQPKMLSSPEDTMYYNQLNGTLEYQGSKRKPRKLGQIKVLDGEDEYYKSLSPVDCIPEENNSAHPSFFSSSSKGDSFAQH
Put plainly: Selectivity interaction (KinomeScan (DiscoverX)) EUB0001049a MYO3B. Particulars: at 1 µM.

The target of assay [7] is Vascular endothelial growth factor receptor 1 (Homo sapiens) (UniProt P17948). As to the kind of experiment: Selectivity interaction (Upstate Kinase Profiler service (Millipore)) EUB0000056c FLT1. The conditions noted are these: at 1 µM.
For assay [8], the target named is AP2-associated protein kinase 1 (Homo sapiens, UniProt Q2M2I8). As to the kind of experiment: Selectivity interaction (KinomeScan (DiscoverX)) EUB0001868a AAK1. The conditions noted are these: at 1 µM.
Assay [9] has as its target Serine/threonine-protein kinase/endoribonuclease IRE1 (Homo sapiens) (UniProt O75460). Put plainly: Selectivity interaction (KinomeScan (DiscoverX)) EUB0000618a ERN1. The conditions noted are these: at 10 µM.
Assay [10] addresses T2, Non-receptor tyrosine-protein kinase TNK1 (Homo sapiens) (UniProt Q13470).
T2 sequence (whole entry): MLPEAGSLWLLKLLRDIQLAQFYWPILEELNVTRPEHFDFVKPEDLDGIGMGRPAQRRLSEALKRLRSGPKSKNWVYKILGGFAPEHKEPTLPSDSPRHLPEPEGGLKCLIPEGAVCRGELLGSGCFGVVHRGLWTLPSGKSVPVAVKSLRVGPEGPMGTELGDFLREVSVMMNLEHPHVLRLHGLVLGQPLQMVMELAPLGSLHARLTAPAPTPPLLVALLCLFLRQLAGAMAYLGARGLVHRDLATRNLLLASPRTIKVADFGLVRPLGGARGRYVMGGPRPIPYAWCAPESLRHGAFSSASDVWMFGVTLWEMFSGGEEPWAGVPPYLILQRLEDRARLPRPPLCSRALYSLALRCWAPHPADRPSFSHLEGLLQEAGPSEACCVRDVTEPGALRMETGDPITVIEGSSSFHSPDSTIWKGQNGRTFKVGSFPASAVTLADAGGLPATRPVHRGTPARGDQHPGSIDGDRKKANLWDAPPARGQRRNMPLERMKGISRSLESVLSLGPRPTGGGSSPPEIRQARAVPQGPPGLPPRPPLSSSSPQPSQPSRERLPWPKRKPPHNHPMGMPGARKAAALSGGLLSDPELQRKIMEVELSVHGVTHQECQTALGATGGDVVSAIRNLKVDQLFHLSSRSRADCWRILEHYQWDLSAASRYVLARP
As to the kind of experiment: Selectivity interaction (KinomeScan (DiscoverX)) EUB0000092b TNK1. The conditions noted are these: at 10 µM.

Sequence of Phosphatidylinositol 4,5-bisphosphate 3-kinase catalytic subunit alpha isoform (Homo sapiens) (P42336 whole entry, canonical isoform): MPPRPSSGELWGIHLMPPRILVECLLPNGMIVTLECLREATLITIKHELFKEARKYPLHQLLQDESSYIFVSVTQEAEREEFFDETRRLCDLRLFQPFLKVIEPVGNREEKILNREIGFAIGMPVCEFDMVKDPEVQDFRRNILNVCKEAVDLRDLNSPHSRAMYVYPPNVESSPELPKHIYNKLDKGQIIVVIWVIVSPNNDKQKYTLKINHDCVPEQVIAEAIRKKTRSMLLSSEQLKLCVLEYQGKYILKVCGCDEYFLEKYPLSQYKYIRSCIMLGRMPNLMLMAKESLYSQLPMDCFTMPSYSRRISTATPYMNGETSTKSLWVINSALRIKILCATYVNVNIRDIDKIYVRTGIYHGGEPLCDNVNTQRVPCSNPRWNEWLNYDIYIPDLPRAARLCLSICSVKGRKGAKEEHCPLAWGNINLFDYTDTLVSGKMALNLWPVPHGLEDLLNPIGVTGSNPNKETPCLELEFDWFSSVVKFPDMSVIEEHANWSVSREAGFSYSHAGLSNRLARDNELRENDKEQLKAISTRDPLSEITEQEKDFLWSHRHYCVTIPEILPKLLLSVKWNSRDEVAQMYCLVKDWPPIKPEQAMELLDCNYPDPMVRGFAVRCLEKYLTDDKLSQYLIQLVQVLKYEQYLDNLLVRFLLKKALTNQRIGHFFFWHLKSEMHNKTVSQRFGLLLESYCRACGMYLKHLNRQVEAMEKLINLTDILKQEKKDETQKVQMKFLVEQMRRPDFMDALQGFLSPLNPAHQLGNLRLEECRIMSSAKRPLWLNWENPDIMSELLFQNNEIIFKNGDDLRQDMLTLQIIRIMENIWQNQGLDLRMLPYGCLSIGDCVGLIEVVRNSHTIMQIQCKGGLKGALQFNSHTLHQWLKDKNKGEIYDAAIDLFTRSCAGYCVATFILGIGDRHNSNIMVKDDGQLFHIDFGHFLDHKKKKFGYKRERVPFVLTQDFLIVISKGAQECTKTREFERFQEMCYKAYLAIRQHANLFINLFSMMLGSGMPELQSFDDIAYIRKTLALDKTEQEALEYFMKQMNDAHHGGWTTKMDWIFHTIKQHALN
Sequence of Tyrosine-protein kinase HCK (Homo sapiens) (P08631 2-526 limits assumed): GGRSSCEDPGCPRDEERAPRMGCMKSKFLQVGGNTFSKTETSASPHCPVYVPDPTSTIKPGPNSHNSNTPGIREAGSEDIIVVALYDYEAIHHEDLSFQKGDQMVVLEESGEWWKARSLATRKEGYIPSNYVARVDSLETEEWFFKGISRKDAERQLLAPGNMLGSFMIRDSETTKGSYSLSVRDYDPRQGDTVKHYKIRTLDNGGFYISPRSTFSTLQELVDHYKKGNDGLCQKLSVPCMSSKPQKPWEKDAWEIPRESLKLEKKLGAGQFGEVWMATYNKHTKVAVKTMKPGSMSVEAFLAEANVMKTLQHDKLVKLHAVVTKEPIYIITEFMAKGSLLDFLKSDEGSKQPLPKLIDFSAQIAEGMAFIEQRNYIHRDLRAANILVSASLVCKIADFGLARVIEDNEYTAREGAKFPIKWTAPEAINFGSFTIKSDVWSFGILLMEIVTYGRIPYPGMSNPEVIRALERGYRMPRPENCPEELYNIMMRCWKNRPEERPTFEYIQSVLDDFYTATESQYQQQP
Sequence of Ribosomal protein S6 kinase alpha-3 (P51812 whole entry): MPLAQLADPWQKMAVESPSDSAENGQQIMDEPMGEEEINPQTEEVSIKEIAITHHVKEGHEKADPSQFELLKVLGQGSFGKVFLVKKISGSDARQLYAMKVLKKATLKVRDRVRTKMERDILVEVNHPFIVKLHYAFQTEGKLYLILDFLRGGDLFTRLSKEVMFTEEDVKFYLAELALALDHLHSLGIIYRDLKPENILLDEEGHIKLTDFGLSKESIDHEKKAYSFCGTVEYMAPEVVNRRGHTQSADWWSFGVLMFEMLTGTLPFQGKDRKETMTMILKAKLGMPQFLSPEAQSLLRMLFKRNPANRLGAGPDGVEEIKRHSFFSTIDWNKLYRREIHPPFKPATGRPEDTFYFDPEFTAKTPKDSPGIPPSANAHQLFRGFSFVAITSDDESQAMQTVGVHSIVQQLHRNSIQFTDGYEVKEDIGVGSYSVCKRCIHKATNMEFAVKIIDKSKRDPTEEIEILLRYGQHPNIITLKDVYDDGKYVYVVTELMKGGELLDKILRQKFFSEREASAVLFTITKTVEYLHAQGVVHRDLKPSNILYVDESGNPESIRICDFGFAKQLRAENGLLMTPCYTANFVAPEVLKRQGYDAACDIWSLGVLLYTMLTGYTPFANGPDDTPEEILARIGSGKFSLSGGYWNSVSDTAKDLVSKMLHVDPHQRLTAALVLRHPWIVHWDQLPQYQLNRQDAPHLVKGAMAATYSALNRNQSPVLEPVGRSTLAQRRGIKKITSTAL
Sequence of Tyrosine-protein kinase BTK (Q06187 whole entry, canonical isoform): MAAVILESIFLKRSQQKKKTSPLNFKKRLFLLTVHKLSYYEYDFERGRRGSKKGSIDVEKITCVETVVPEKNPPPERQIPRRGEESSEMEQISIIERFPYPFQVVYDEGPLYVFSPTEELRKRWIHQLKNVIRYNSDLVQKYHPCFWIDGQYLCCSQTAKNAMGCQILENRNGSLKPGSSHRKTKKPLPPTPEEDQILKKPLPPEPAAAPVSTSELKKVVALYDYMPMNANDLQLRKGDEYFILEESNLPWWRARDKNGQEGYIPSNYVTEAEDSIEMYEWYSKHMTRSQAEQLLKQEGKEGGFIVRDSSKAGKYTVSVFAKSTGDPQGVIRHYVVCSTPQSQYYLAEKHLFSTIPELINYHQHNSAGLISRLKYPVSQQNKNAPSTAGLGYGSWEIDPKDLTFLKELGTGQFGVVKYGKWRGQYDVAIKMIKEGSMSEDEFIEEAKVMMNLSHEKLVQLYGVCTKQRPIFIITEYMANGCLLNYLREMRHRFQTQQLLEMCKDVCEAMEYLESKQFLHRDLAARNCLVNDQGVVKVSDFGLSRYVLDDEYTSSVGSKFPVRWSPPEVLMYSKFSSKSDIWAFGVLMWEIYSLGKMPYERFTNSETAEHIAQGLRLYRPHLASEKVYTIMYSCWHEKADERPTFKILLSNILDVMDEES
Sequence of AP2-associated protein kinase 1 (Q2M2I8 whole entry, looked up): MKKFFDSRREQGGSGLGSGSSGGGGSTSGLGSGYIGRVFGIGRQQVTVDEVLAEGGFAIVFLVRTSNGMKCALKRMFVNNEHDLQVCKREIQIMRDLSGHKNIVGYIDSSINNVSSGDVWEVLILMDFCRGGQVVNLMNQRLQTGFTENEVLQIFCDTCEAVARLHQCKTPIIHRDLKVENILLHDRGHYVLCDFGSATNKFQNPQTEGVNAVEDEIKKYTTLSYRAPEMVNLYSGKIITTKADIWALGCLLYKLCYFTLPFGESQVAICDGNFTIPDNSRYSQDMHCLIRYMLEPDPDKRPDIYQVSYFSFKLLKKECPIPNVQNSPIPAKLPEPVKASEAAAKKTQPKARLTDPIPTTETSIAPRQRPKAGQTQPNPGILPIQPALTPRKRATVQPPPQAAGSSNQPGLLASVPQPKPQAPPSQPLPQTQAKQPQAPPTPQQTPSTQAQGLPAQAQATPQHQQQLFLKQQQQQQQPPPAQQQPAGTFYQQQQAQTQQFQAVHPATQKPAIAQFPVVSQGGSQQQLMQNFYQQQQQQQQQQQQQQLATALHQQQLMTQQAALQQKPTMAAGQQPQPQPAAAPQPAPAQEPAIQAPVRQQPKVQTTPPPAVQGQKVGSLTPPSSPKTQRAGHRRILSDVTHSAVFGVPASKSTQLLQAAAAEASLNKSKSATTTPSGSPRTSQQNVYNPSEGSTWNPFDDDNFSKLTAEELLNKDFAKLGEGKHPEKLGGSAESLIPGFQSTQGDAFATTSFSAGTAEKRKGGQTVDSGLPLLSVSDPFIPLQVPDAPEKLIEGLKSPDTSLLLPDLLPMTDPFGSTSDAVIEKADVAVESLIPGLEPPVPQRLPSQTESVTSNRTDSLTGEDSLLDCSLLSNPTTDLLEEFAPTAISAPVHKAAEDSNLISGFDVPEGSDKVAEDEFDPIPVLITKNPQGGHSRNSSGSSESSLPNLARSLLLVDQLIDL
Sequence of Mitogen-activated protein kinase 9 (P45984 whole entry, looked up): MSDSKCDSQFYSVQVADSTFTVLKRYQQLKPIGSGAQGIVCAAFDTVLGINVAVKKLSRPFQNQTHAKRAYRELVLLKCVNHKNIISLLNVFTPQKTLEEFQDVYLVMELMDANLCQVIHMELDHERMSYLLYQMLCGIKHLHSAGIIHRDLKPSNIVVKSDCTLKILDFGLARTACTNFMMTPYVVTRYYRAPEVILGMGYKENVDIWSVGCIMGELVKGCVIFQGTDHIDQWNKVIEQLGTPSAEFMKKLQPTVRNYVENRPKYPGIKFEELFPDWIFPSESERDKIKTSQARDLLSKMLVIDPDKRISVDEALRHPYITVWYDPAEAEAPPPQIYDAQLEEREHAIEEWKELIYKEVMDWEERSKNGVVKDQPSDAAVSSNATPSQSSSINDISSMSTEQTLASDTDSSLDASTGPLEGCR

`CNC(=O)Nc1ccc(-c2nc(N3CC4CCC(C3)O4)c3cnn(C4CCC5(CC4)OCCO5)c3n2)cc1`: the % of inhibition in [1] turned out to be 11%. In the case of `CC[C@@H]1[C@H](F)C(=O)N[C@@H]1COc1nccc2cc(C(N)=O)c(OC)cc12` [ZIMLOVISERTIB], the % of inhibition in [2] was 4.23%; in assay [3], -3%. As to `C=CC(=O)Nc1cc(-n2c(=O)ccc3cnc4ccc(-c5ccc(NS(C)(=O)=O)cc5)cc4c32)ccc1C`, in assay [4], the % of control came out at 0.7%.

Regarding `C=CC(=O)Nc1cccc(C(=O)Nc2ccc(Nc3cc(-c4[nH]c(SC)nc4C)ccn3)cc2)c1`, the % of control in assay [5] (at 1 µM) was 118%; in [5] (at 5 µM), 106%. With `COc1cc(Nc2nc(C)cc(-c3cnn4nc(OC)ccc34)n2)cc(C(F)(F)F)c1`, the % of control in assay [6] was 100%. In the case of `Cc1ccc(-c2ccc3c(ccc4sc5c(c43)NC[C@@H](C)NC5=O)n2)cn1`, the % of inhibition in [7] was found to be 21%.

On to `Cc1cc(-c2ccnc(Nc3cnn(C)c3)n2)ccc1CNC(=O)N1CC(OC(C)C)C1`, for which, in assay [8], the % of control came out at 22%.

Turning to `O[C@H]1CC[C@H](Nc2ncc3nc(Nc4c(F)cc(F)cc4F)n([C@H]4CCOC4)c3n2)CC1`, the % of control in [9] came out at 46%. In assay [10], `CCC(=O)N1CCN(c2ccc(-n3c(=O)ccc4cnc5ccc(-c6cnc7ccccc7c6)cc5c43)cc2C(F)(F)F)CC1` returned a % of control of 6.8%.
